# Results taken from patent US4313943A, “7-Chloro-2,3-dihydro-5-phenyl-1-propargyl-1H-1,4-benzodiazepine-2-one, and a pharmaceutical composition thereof” (priority 1972, dated 1982).
# “Also recorded” adds a separate entry of the source.
# How the values were obtained:
# [1] = Acute toxicity in the mouse (oral); conditions: in vivo, mouse (male)
# Experimental: (§1) The test compounds shown in Table 2 were administered orally to male mice and rats in the form of a suspension in a 1% solution of sodium carboxymethyl cellulose. The LD50 (lethal dose 50%) was calculated by the method of Litchfield and Wilcoxon.
# [2] = Acute toxicity in the rat (oral); conditions: in vivo
# Experimental: as §1
# [3] = Potentiation of narcosis (hexobarbitone sodium) in the mouse, Winter method; type: in vivo; conditions: hexobarbitone sodium 80 mg/kg i.p., control 33.3
# Experimental: The Winter method was used, in which a state of narcosis is induced by the intraperitoneal administration of 80 mg/kg of hexobarbitone sodium, and is assessed by the loss of the righting reflex in the test animal. […] orally to the animals, in doses shown in Table 4, as suspensions in 1% sodium carboxymethyl cellulose solution; and the prolongation of narcosis in the animals thus treated was observed, by comparison with controls which received only the hexobarbitone administration.
# [4] = Myorelaxant activity in the mouse (traction test); type: in vivo; conditions: after 30 minutes
# Experimental: This was determined by the traction test of Joulon Courvoisier, following Boissier and Simon, in which the mouse is suspended by its front paws to a horizontal metal wire, and the animal's capacity to get up with its hind paws is observed. The test compounds were administered orally to the animals, in the doses shown in Table 5, as suspensions in 1% sodium carboxymethyl cellulose solution; and the animals were tested 30 minutes and 180 minutes after administration. The test animals were deemed to be myorelaxant if unable to get up within 5 seconds.
# [5] = Anti-convulsant activity in the mouse (convulsions induced by 1,5-pentamethylenetetrazole); type: in vivo; conditions: 30 min before pentamethylenetetrazole s.c.
# Experimental: The inhibition of convulsions induced by 1,5-pentamethylenetetrazole was tested by the Clen method. The test compounds were administered orally to the mice, in the doses shown in Table 3, in the form of suspensions in 1% sodium carboxymethyl cellulose solution, and 30 minutes later the test animals were injected subcutaneously with […] of 1,5-pentamethylenetetrazole. The number of mice protected from lethal extensorial tonic spasms, per group of 10 test animals, was recorded.
# [6] = Effect on muscular relaxation in mice (30° inclined screen, Randall); type: in vivo
# Experimental: The method utilized was the procedure described by Randall (1961) using a 30° inclined screen.
# [7] = Motor coordination in rats (rotarod, Dunham and Miya 1957); conditions: 68 mg/kg/os
# [8] = ECoG and sedation in test animals free to move; type: in vivo; conditions: unrestricted animals; compound 3 at 10 mg/kg
# Experimental: Some test animals were kept in restraint cases placed in a relatively soundproof room and some were left free to move in metal cases measuring 40×50×30 cm, which were also kept in a relatively quiet environment.
# In the test animals which were free to move, the first signs of sedation produced by the intragastric administration of 7.5 mg/kg of compounds 1 and 4 appeared, respectively, at 16 minutes (compound 1) and at 8 minutes (compound 4). […] The duration of the effect was, however, shorter, not exceeding 3 hours under these conditions in contrast to the 5 hour minimum for restricted animals.
# [9] = Hypnotic activity comparison (Janssen 1959); type: in vivo; conditions: Table 11; species not given
# Experimental: Toxicity in test animals to the test compounds in terms of LD50 after oral and intraperitoneal administration was determined according to the procedure of Litchfield and Wilcoxan (1949) and the hypnotic effect on test animals was determined in accordance with the method of Janssen (1959).
# [10] = Electrogenesis of various subcortical centers; type: in vivo; conditions: in vivo
# Experimental: This study was conducted with test animals weighing between 2.6 and 2.8 kg, following the stereotaxic method of Monnier and Gangloff (Atlas et techniques stereotaxique pour le cerveau du lopin eveille, 1961, Elsevier Pub. Co.), permitting the stimulation of certain subcortical structures as well as a simultaneous detection and recording of their electrical activities, which were compared to that of reference cortical electrodes. In this study, the subcortical centers considered were the caudate nucleus, the dorsal hippocampus, the lateral thalamus, the mesenephalic reticular formation, and the hypothalamic reticular formation. Test compounds 1 and 4 were administered by the intragastric route with an identical dose of 7.5 mg/kg.
# Spontaneous activity in the subcortical centers of the unanesthetized animals is characterized by desynchronized activity consisting of high amplitude and relatively slow rhythms (4 to 5 c/sec.), alternating with low amplitude rapid rhythms (12 to 13 c/sec.). Tracings from the hippocampus and caudate nucleus sometimes takes the form of bursts, which is less commonly the case from the thalamus. These may occur at the same time as bursts of rapid spikes arising from the frontal cortex. During periods of arousal, this desynchronized activity is followed by a synchronized theta rhythm (7 to 8 c/sec.) from the hippocampus and caudate nucleus and from the median thalamus, whereas the cortical and reticular electrical activities are transformed into ultra-rapid and low voltage rhythms (30μ volts).
# [11] = Convulsions induced by pentamethylenetetrazol in rats; type: in vivo
# Experimental: The method utilized was according to the method published by Everett and Richards (1944) and Banziger (1965). The pentamethylenetetrazol was given subcutaneously (125 mg/kg) and the test compounds were given orally suspended in a 1% carboxymethyl cellulose solution.
compound,measurement,setting,value
"C#CCN1C(=O)CN=C(c2ccccc2)c2cc([N+](=O)[O-])ccc21 [Compound 2, 7-nitro-2,3-dihydro-5-phenyl-1-propargyl-1H-1,4-benzodiazepin-2-one]",LD50,[1],1880 mg/kg
same,LD50,[2],876 mg/kg
same,Duration of narcosis,[3]; 0.5 mg/kg oral,53.4 min
same,Duration of narcosis,[3]; 1.0 mg/kg oral,94.5 min
same,Duration of narcosis,[3]; 2.0 mg/kg oral,195.1 min
same,Percentage of myorelaxant animals,[4]; 1.0 mg/kg oral,10%
same,Percentage of myorelaxant animals,[4]; 2.0 mg/kg oral,20%
same,Percentage of myorelaxant animals,[4]; 4.0 mg/kg oral,40%
same,Percentage of myorelaxant animals,[4]; 8.0 mg/kg oral,60%
same,No. of Animals Protected,[5]; 0.12 mg/kg oral,1/10
same,No. of Animals Protected,[5]; 0.25 mg/kg oral,4/10
same,No. of Animals Protected,[5]; 0.5 mg/kg oral,9/10
"CN1C(=O)CN=C(c2ccccc2)c2cc(Cl)ccc21 [Compound 3, 7-chloro-1,3-dihydro-1-methyl-5-phenyl-2H-1,4-benzodiazepin-2-one, reference compound]",% Relaxed Animals,[6]; 10 mg/kg/os,20%
same,ED50,"[6]; Mus musculus, po, muscular relaxation, read-out: ED50 (and C.L.)",14.1 mg/kg
same,% Uncoordinated Animals,[7],50%
same,duration of ECoG effects (three compounds compared),[8],about 31/2
same,ED50,[9],242 mg/kg
same,EEG activity of the hippocampus,[10]; listed as Valium,depressed; also recorded: reduction in the amplitude of the hippocampal rhythm
same,ED50,"[11]; Rattus norvegicus, oral, protection against pentamethylenetetrazol, read-out: ED50 (and C.L.) (converted)",7.8 mg/kg
same,% Protected Animals,[11]; Time 90 min.,20%
same,% Protected Animals,[11]; Time 120 min.,10%
same,% Protected Animals,[11]; Time 180 min.,0%
same,% Protected Animals,[11]; Time 240 min.,0%
"CNC1=Nc2ccc(Cl)cc2C(c2ccccc2)=[N+]([O-])C1 [Librium, reference compound]",EEG activity of the hippocampus,[10],depressed; also recorded: reduction in the amplitude of the hippocampal rhythm
